Laboratory results reported in patent US11173151B2, “Substituted triazole derivatives and uses thereof” (BAYER AKTIENGESELLSCHAFT, priority 2017, dated 2021).

Key:
human V1a receptor = target: T1, human V1a receptor (Homo sapiens, UniProt P37288); experiment: Cellular in vitro assay for determining vasopressin receptor activity, V1a receptor cell line (CHO, aequorin luminescence); type: cell-based; conditions: for IC50: CHO cell line transfected with human V1a receptor, [Arg]-vasopressin at EC50 concentration, read-out: IC50 hV1a; for ratio IC50 hV2/hV1a: selectivity ratio IC50 hV2 / IC50 hV1a
T1 construct: expressed in transfected cells; host or cells: CHO K1 (ATCC), also stably transfected with a modified aequorin
In short: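 CHO K1/aequorin cells, coelenterazine 5 μg/ml o/n; cpd 10 min; [Arg]-vasopressin at EC50; luminescence read immediately; IC50.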

human V2 receptor = target: T2, human V2 receptor (Homo sapiens, UniProt P30518); experiment: Cellular in vitro assay for determining vasopressin receptor activity, V2 receptor cell line (CHO, CRE-luciferase); type: cell-based; conditions: CHO cell line transfected with human V2 receptor; [Arg8]-vasopressin at EC50 concentration; read-out: IC50 hV2
T2 construct: expressed in transfected cells; host or cells: CHO K1 (ATCC) expressing firefly luciferase under a CRE-responsive promoter
T2 sequence (P30518 whole entry): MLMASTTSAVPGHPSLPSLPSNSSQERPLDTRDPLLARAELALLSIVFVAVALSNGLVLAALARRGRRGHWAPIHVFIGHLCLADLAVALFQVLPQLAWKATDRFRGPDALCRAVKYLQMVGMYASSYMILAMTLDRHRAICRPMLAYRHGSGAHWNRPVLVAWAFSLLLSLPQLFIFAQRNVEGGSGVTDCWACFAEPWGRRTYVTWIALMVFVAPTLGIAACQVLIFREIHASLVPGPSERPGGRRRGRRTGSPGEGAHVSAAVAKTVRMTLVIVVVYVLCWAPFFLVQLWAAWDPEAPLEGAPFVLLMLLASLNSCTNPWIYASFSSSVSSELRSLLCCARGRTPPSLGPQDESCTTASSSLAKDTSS

T1 sequence (P37288 whole entry): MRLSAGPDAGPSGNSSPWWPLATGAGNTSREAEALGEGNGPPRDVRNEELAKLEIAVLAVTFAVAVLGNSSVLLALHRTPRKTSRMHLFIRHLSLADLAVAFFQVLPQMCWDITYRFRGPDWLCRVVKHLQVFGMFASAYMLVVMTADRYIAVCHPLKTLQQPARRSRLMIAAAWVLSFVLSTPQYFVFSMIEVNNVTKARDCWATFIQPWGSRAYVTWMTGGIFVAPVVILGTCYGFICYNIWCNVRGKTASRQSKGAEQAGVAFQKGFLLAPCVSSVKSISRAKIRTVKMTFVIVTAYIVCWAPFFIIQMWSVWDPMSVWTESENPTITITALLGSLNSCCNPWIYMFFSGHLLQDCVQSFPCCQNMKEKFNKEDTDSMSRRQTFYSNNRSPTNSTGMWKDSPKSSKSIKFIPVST

Compound	IC50 (human V1a receptor) [µM]	ratio IC50 hV2/hV1a (human V1a receptor)	IC50 (human V2 receptor) [µM]
O=C(c1ncccc1-n1cnc(Cn2nc(-c3ccc(Cl)cc3)n(C[C@H](O)C(F)(F)F)c2=O)n1)N1CCOC(C(F)(F)F)C1 (mixture of isomers) [Example 444, 5-(4-Chlorophenyl)-4-[(2S)-3,3,3-trifluoro-2-hydroxypropyl]-2-{[1-(2-{[2-(trifluoromethyl)morpholin-4-yl]carbonyl}pyridin-3-yl)-1H-1,2,4-triazol-3-yl]methyl}-2,4-dihydro-3H-1,2,4-triazol-3-one]	0.12	65.4	7.85
O=C(c1ncccc1-n1cnc(Cn2nc(-c3ccc(Cl)cc3)n(C[C@H](O)C(F)(F)F)c2=O)n1)N1CCNC(C(F)(F)F)C1 (mixture of isomers) [Example 448, 5-(4-Chlorophenyl)-4-[(2S)-3,3,3-trifluoro-2-hydroxypropyl]-2-{[1-(2-{[3-(trifluoromethyl)piperazin-1-yl]carbonyl}pyridin-3-yl)-1H-1,2,4-triazol-3-yl]methyl}-2,4-dihydro-3H-1,2,4-triazol-3-one]	0.165	16.4	2.7
O=C(c1ncccc1-n1cnc(Cn2nc(-c3ccc(Cl)cc3)n(C[C@@H](O)C(F)(F)F)c2=O)n1)N1CCC(C(F)(F)F)C1 (mixture of isomers) [Example 480, 5-(4-Chlorophenyl)-4-[(2R)-3,3,3-trifluoro-2-hydroxypropyl]-2-{[1-(2-{[3-(trifluoromethyl)pyrrolidin-1-yl]carbonyl}pyridin-3-yl)-1H-1,2,4-triazol-3-yl]methyl}-2,4-dihydro-3H-1,2,4-triazol-3-one]	0.46	69.6	32
NC(CNC(=O)c1ncccc1-n1cnc(Cn2nc(-c3ccc(Cl)cc3)n(C[C@@H](O)C(F)(F)F)c2=O)n1)C(F)(F)F (mixture of isomers) [Example 484, N-[2-Amino-3,3,3-trifluoropropyl]-3-[3-({3-(4-chlorophenyl)-5-oxo-4-[(2R)-3,3,3-trifluoro-2-hydroxypropyl]-4,5-dihydro-1H-1,2,4-triazol-1-yl}methyl)-1H-1,2,4-triazol-1-yl]pyridine-2-carboxamide]	0.21	44.8	9.4
COCC1CCCN1C(=O)c1ccncc1-n1cnc(Cn2nc(-c3ccc(Cl)cc3)n(C[C@H](O)C(F)(F)F)c2=O)n1 (mixture of isomers) [Example 493, 5-(4-Chlorophenyl)-2-{[1-(4-{[2-(methoxymethyl)pyrrolidin-1-yl]carbonyl}pyridin-3-yl)-1H-1,2,4-triazol-3-yl]methyl}-4-[(2S)-3,3,3-trifluoro-2-hydroxypropyl]-2,4-dihydro-3H-1,2,4-triazol-3-one]	0.0135	540.7	7.3
O=C(NC1CC1F)c1cccnc1-n1cnc(Cn2nc(-c3ccc(Cl)cc3)n(C[C@H](O)C(F)(F)F)c2=O)n1 (mixture of isomers) [Example 503]	0.00555	38.7	0.215
COCC1CCCN1C(=O)c1cccnc1-n1nc(Cn2nc(-c3ccc(Cl)cc3)n(C[C@H](O)C(F)(F)F)c2=O)nc1C(=O)N1CCNC(=O)C1 (mixture of isomers) [Example 526, 4-{[3-({3-(4-Chlorophenyl)-5-oxo-4-[(2S)-3,3,3-trifluoro-2-hydroxypropyl]-4,5-dihydro-1H-1,2,4-triazol-1-yl}methyl)-1-(3-{[2-(methoxymethyl)pyrrolidin-1-yl]carbonyl}pyridin-2-yl)-1H-1,2,4-triazol-5-yl]carbonyl}piperazin-2-one]	8.65	2.3	20
COCC1CCCN1C(=O)c1cccnc1-n1nc(Cn2nc(-c3ccc(Cl)cc3)n(C[C@H](O)C(F)(F)F)c2=O)nc1C(=O)N1CCS(=O)(=O)CC1 (mixture of isomers) [Example 532, 5-(4-Chlorophenyl)-2-({5-[(1,1-dioxidothiomorpholin-4-yl)carbonyl]-1-(3-{[2-(methoxymethyl)pyrrolidin-1-yl]carbonyl}pyridin-2-yl)-1H-1,2,4-triazol-3-yl}methyl)-4-[(2S)-3,3,3-trifluoro-2-hydroxypropyl]-2,4-dihydro-3H-1,2,4-triazol-3-one]	0.275	17.6	4.85

The next lines start with the values.

IC50 (human V1a receptor) [µM]	ratio IC50 hV2/hV1a (human V1a receptor)	IC50 (human V2 receptor) [µM]	Compound
0.2	16.8	3.35	O=C(c1ncccc1-n1cnc(Cn2nc(-c3ccc(Cl)cc3)n(C[C@H](O)C(F)(F)F)c2=O)n1)N1CCC(C(F)(F)F)C1 (mixture of isomers) [Example 449, 5-(4-Chlorophenyl)-4-[(2S)-3,3,3-trifluoro-2-hydroxypropyl]-2-{[1-(2-{[3-(trifluoromethyl)pyrrolidin-1-yl]carbonyl}pyridin-3-yl)-1H-1,2,4-triazol-3-yl]methyl}-2,4-dihydro-3H-1,2,4-triazol-3-one]
0.62	51.6	32	NC(=O)C1CCCN1C(=O)c1ncccc1-n1cnc(Cn2nc(-c3ccc(Cl)cc3)n(C[C@@H](O)C(F)(F)F)c2=O)n1 (mixture of isomers) [Example 467, 1-({3-[3-({3-(4-chlorophenyl)-5-oxo-4-[(2R)-3,3,3-trifluoro-2-hydroxypropyl]-4,5-dihydro-1H-1,2,4-triazol-1-yl}methyl)-1H-1,2,4-triazol-1-yl]pyridin-2-yl}carbonyl)-prolinamide]
0.23	21.7	5	O=C(NCC(O)C(F)(F)F)c1ncccc1-n1cnc(Cn2nc(-c3ccc(Cl)cc3)n(C[C@@H](O)C(F)(F)F)c2=O)n1 (mixture of isomers) [Example 485, 3-[3-({3-(4-Chlorophenyl)-5-oxo-4-[(2R)-3,3,3-trifluoro-2-hydroxypropyl]-4,5-dihydro-1H-1,2,4-triazol-1-yl}methyl)-1H-1,2,4-triazol-1-yl]-N-[3,3,3-trifluoro-2-hydroxypropyl]pyridine-2-carboxamide]
5.7	9.6	55	COCC1CCCN1C(=O)c1ccncc1-n1nc(Cn2nc(-c3ccc(Cl)cc3)n(C[C@H](O)C(F)(F)F)c2=O)nc1C(=O)N1CCNC(=O)C1 (mixture of isomers) [Example 516, 4-{[3-({3-(4-Chlorophenyl)-5-oxo-4-[(2S)-3,3,3-trifluoro-2-hydroxypropyl]-4,5-dihydro-1H-1,2,4-triazol-1-yl}methyl)-1-(4-{[2-(methoxymethyl)pyrrolidin-1-yl]carbonyl}pyridin-3-yl)-1H-1,2,4-triazol-5-yl]carbonyl}piperazin-2-one]
3	5.0	15	COCC1CCCN1C(=O)c1ccncc1-n1nc(Cn2nc(-c3ccc(Cl)cc3)n(C[C@H](O)C(F)(F)F)c2=O)nc1C(=O)N1CCS(=O)(=O)CC1 (mixture of isomers) [Example 522, 5-(4-Chlorophenyl)-2-({5-[(1,1-dioxidothiomorpholin-4-yl)carbonyl]-1-(4-{[2-(methoxymethyl)pyrrolidin-1-yl]carbonyl}pyridin-3-yl)-1H-1,2,4-triazol-3-yl}methyl)-4-[(2S)-3,3,3-trifluoro-2-hydroxypropyl]-2,4-dihydro-3H-1,2,4-triazol-3-one]
